Data taken from patent publication US9561230B2, “Aryl-substituted tricyclic sulfonamides as methionyl aminopeptidase 2 modulators” (Zafgen, Inc., priority 2011, dated 2017).
pIC50: −log10 of the molar value.

Target: T1, recombinant human MetAP2 (Homo sapiens, UniProt P50579)
T1 construct: made in house; host or cells: Sf9 insect cells
Test: Inhibition of recombinant human MetAP2 activity (MAS substrate, amino acid oxidase/Amplex red fluorescence)
Type: biochemical
Details: manganese enzyme, 0.75 mM MAS substrate, 30 minutes at 25° C., pH 7.5, 1% DMSO; read-out: Activity (IC50 class, MetAP2 inhibition)
Protocol: Compounds are tested for their capacity to inhibit recombinant human MetAP2 activity using the following assay.
Human recombinant MetAP2 expressed in Sf9 cells followed by affinity purification and EDTA treatment to remove endogenous active site cation was dialysed against MnCl2 to produce the manganese enzyme used in the assay. The assay was carried out for 30 minutes at 25° C. in 50 mM HEPES buffer containing 100 mM NaCl, pH 7.5 the presence of 0.75 mM Methionine-Alanine-Serine (MAS) substrate and 50 μg/ml amino acid oxidase using a dilution of purified MetAP2 giving>3-fold signal:noise. Cleavage of the substrate by MetAP2 and oxidation of free methionine by amino acid oxidase was detected and quantified using fluorescence generated by Amplex red (10-acetyl-3,7-dihydroxyphenoxazine) in combination with horseradish peroxidase which detects H2O2 released during the oxidation step. The fluorescent signal was detected using a multiwell fluorimeter. Compounds were diluted in DMSO prior to addition to assay buffer, the final DMSO concentration in the assay being 1%.
The IC50 is defined as the concentration at which a given compound achieves 50% inhibition of control. IC50 values are calculated using the XLfit software package (version 2.0.5).

T1 sequence (P50579 whole entry): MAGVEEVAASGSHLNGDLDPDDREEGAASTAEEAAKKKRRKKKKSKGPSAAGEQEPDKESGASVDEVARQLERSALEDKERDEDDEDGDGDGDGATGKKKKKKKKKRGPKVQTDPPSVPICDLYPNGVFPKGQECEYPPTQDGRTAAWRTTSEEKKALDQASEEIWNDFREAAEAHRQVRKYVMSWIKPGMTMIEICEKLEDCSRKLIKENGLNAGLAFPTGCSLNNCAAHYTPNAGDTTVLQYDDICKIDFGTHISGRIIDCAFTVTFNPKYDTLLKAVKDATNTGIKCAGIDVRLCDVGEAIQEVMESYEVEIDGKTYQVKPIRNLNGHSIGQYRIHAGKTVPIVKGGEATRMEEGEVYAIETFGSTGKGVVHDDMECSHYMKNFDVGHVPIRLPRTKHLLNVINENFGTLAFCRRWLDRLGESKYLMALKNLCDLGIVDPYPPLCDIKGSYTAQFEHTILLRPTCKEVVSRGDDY

pIC50 | Compound
< 6.30 | CCN(CC)C/C=C\c1cc(F)ccc1S(=O)(=O)Nc1ccc2c(nc3n2CCC3)c1C(=O)O [6-[2-((Z)-3-Diethylaminoprop-1-enyl)-4-fluorobenzenesulfonylamino]-2,3-dihydro-1H-benzo[d]pyrrolo[1,2-a]imidazole-5-carboxylic acid]
6.30 to 7.30 | CCN(CC)C/C=C\c1cc(F)ccc1S(=O)(=O)Nc1ccc2c(c1C(=O)O)CCC1CCCN21 (centres unmarked) [7-[2-((Z)-3-Diethylaminoprop-1-enyl)-4-fluorobenzenesulfonylamino]-1,2,3,3a,4,5-hexahydropyrrolo[1,2-a]quinoline-6-carboxylic acid]
6.30 to 7.30 | CCN(CC)C/C=C\c1cc(F)ccc1S(=O)(=O)Nc1ccc2c(c1C(=O)O)CC1CCCN21 (centres unmarked) [7-[2-((Z)-3-Diethylaminoprop-1-enyl)-4-fluorobenzenesulfonylamino]-2,3,9,9a-tetrahydro-1H-pyrrolo[1,2-a]indole-8-carboxylic acid]
> 7.30 | CCN(CC)C/C=C\c1cc(F)ccc1S(=O)(=O)Nc1ccc2c(cc3n2CCC3)c1C(=O)O [7-[2-((Z)-3-Diethylaminoprop-1-enyl)-4-fluorobenzenesulfonylamino]-2,3-dihydro-1H-pyrrolo[1,2-a]indole-8-carboxylic acid]

Further lines, the compound ahead of its results:

Compound | pIC50
O=C(O)c1c(NS(=O)(=O)c2ccccc2)ccc2c1cc1n2CCC1 [7-Benzenesulfonylamino-2,3-dihydro-1H-pyrrolo[1,2-a]indole-8-carboxylic acid] | < 6.30
CCN(CC)C/C=C\c1cc(F)ccc1S(=O)(=O)Nc1ccc2c(c1C(=O)O)OC[C@H]1CCN21 [(R)-6-[2-((Z)-3-Diethylaminoprop-1-enyl)-4-fluorobenzenesulfonylamino]-1,2,2a,3-tetrahydro-4-oxa-8b-azacyclobuta[a]naphthalene-5-carboxylic acid] | < 6.30
CCN(CC)C/C=C\c1cc(F)ccc1S(=O)(=O)Nc1ccc2c(c1C(=O)O)OC[C@H]1CCCN21 [(R)-7-[2-((Z)-3-Diethylaminoprop-1-enyl)-4-fluorobenzenesulfonyl-amino]-2,3,3a,4-tetrahydro-1H-benzo[b]pyrrolo[1,2-d][1,4]oxazine-6-carboxylic acid] | 6.30 to 7.30
CCN(CC)C/C=C\c1cc(F)ccc1S(=O)(=O)Nc1ccc2c(c1C(=O)O)OC[C@@H]1CCCN21 [(S)-7-[2-((Z)-3-Diethylaminoprop-1-enyl)-4-fluorobenzenesulfonyl-amino]-2,3,3a,4-tetrahydro-1H-benzo[b]pyrrolo[1,2-d][1,4]oxazine-6-carboxylic acid] | 6.30 to 7.30
